Results taken from patent US11540542B2, “Taste modulating aldehydes” (TAKASAGO INTERNATIONAL CORPORATION, priority 2016, dated 2023).

Test system: trained experts
Assay: Monkfruit juice beverage taste comparison, trained experts
Conditions: 0.000001% cut of 1% 2,6-nonadienal in ethyl acetate, used at 0.10% in Monkfruit beverage (juice concentrate 0.15%); three trained experts
Experimental: A taste comparison was conducted by combining and mixing 0.000001% cut of 1% 2,6-nonadienal (I % in ethanol) in ethyl acetate and used that dilution at 0.10% in a Monkfruit beverage in water, wherein Monkfruit juice concentrate was present at 0.15%. Three trained experts evaluated the combination against a control of Monkfruit juice without the taste modulation compound.

CCC=CCCC=CC=O [2,6-nonadienal]
modulation of off-notes of Monkfruit juice versus control: demonstrated a modulation of the off-notes
